Measurements published in PMC12933331, “A Cryptic Pocket Allosterically Modulates Oligosaccharide Binding to DC-SIGN” (JACS Au, 2026).
Changes are numbered by the printed parent chain.

Columns and labels:
Assay type in all cases: binding
DC-SIGN CRD Q323A = target: T1, DC-SIGN CRD Q323A (Homo sapiens, UniProt Q9NNX6, Q323A); experiment: 1H-15N HSQC NMR titration (CSP fitting)
T1 construct: acids 253-404 of DC-SIGN; His-tag (N); made in house
T1 sequence (Q9NNX6 253-404 Q323A limits assumed): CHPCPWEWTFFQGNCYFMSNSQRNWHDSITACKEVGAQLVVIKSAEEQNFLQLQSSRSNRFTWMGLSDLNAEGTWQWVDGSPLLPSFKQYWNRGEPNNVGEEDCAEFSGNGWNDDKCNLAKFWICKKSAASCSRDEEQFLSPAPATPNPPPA
Procedure: (§1) 1H-15N HSQC NMR. 1H-15N HSQC NMR spectra were collected with 256 increments in the nitrogen and 24 scans per increment and 2048 points in the direct dimension. The relaxation delay d1 was set to 1.0 s. The W5 WATERGATE pulse sequence was used for solvent suppression.3, 4 Experiments were performed at a CRD concentration of 200 μM in 20 mM MES, 40 mM NaCl, 10 mM CaCl2 (pH 6.0) supplemented with 10% D 2O and, if applicable, varying concentrations of ligands. Samples of apo DC -SIGN CRD were prepared as described for 1H-13C HSQC NMR experiments. A previously published resonance assignment of DC-SIGN CRD was transferred to the nearest neighbor in a reference spectrum recorded without ligand.5 Unassigned, overlapping or disappearing peaks were not assigned.
(§2) CSPs induced by mutations or ligands were calculated as previously described according to […]
(§3) The empirical weighing factor a was set to 0.15 for all calculations.
(§4) Dissociation constants (K Ds) were determined in titration experiments at five ligand concentratio ns […]
(§5) in the fast exchange regime were used for the fitting procedure via equation 4 in a global two - […]
(§6) with CSP max corresponding to the CSP values upon saturation and the bound protein fraction p b […]
(§7) CHESPA was performed as previously described .7 The chemical shift vector between apo and holo wildtype DC -SIGN CRD was used as reference perturbation to calculate the vector product to […]

DC-SIGN CRD wildtype = target: T2, DC-SIGN CRD wildtype (Homo sapiens, UniProt Q9NNX6); experiment: 1H-15N HSQC NMR titration (CSP fitting)
T2 construct: acids 253-404 of DC-SIGN; His-tag (N); made in house
T2 sequence (Q9NNX6 253-404): T1 sequence (Q9NNX6 253-404 Q323A limits assumed) with A71Q
Procedure: as §1, §2, §3, §4, §5, §6, §7

DC-SIGN CRD W364F = target: T3, DC-SIGN CRD W364F (Homo sapiens, UniProt Q9NNX6, W364F); experiment: 1H-15N HSQC NMR titration (CSP fitting)
T3 construct: acids 253-404 of DC-SIGN; His-tag (N); made in house
T3 sequence (Q9NNX6 253-404 W364F): T1 sequence (Q9NNX6 253-404 Q323A limits assumed) with A71Q, W112F
Procedure: as §1, §2, §3, §4, §5, §6, §7

DC-SIGN CRD F313A = target: T4, DC-SIGN CRD F313A (Homo sapiens, UniProt Q9NNX6, F313A); experiment: 1H-15N HSQC NMR titration (CSP fitting)
T4 construct: acids 253-404 of DC-SIGN; His-tag (N); made in house
T4 sequence (Q9NNX6 253-404 F313A): T1 sequence (Q9NNX6 253-404 Q323A limits assumed) with F61A, A71Q
Procedure: as §1, §2, §3, §4, §5, §6, §7

DC-SIGN CRD F359L = target: T5, DC-SIGN CRD F359L (Homo sapiens, UniProt Q9NNX6, F359L); experiment: 1H-15N HSQC NMR titration (CSP fitting)
T5 construct: acids 253-404 of DC-SIGN; His-tag (N); made in house
T5 sequence (Q9NNX6 253-404 F359L): T1 sequence (Q9NNX6 253-404 Q323A limits assumed) with A71Q, F107L
Procedure: as §1, §2, §3, §4, §5, §6, §7

DC-SIGN CRD T314A = target: T6, DC-SIGN CRD T314A (Homo sapiens, UniProt Q9NNX6, T314A); experiment: 1H-15N HSQC NMR titration (CSP fitting)
T6 construct: acids 253-404 of DC-SIGN; His-tag (N); made in house
T6 sequence (Q9NNX6 253-404 T314A): T1 sequence (Q9NNX6 253-404 Q323A limits assumed) with T62A, A71Q
Procedure: as §1, §2, §3, §4, §5, §6, §7

DC-SIGN CRD I376V = target: T7, DC-SIGN CRD I376V (Homo sapiens, UniProt Q9NNX6, I376V); experiment: 1H-15N HSQC NMR titration (CSP fitting)
T7 construct: acids 253-404 of DC-SIGN; His-tag (N); made in house
T7 sequence (Q9NNX6 253-404 I376V limits assumed): T1 sequence (Q9NNX6 253-404 Q323A limits assumed) with A71Q, I124V
Procedure: as §1, §2, §3, §4, §5, §6, §7

DC-SIGN CRD M270F = target: T8, DC-SIGN CRD M270F (Homo sapiens, UniProt Q9NNX6, M270F); experiment: 1H-15N HSQC NMR titration (CSP fitting)
T8 construct: acids 253-404 of DC-SIGN; His-tag (N); made in house
T8 sequence (Q9NNX6 253-404 M270F): T1 sequence (Q9NNX6 253-404 Q323A limits assumed) with M18F, A71Q
Procedure: as §1, §2, §3, §4, §5, §6, §7

DC-SIGN CRD E358A = target: T9, DC-SIGN CRD E358A (Homo sapiens, UniProt Q9NNX6, E358A); experiment: 1H-15N HSQC NMR titration (CSP fitting)
T9 construct: acids 253-404 of DC-SIGN; His-tag (N); made in house
T9 sequence (Q9NNX6 253-404 E358A): T1 sequence (Q9NNX6 253-404 Q323A limits assumed) with A71Q, E106A
Procedure: as §1, §2, §3, §4, §5, §6, §7

DC-SIGN ECD T314A = target: T10, DC-SIGN ECD T314A (Homo sapiens, UniProt Q9NNX6, T314A); experiment: Plate-based horseradish peroxidase assay; conditions: 1 µg mL-1 HRP, 25 mM CaCl2
T10 construct: acids 64 -404 of DC -SIGN; made in house
T10 sequence (Q9NNX6 64-404 T314A): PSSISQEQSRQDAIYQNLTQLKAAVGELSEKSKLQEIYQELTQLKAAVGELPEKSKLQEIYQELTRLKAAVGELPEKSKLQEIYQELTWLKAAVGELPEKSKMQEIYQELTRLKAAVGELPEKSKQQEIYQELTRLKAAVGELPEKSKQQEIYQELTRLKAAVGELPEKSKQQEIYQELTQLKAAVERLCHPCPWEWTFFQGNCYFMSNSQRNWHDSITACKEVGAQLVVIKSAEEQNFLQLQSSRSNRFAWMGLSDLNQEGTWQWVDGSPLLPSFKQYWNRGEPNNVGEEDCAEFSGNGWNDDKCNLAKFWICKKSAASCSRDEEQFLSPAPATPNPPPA
Procedure: Measurements were done on a Enspire Multimode Plate Reader (PerkinElmer). GraphPad Prism was used for all data processing and analysis.
CaCl2 titration. 100 µg mL-1 DC-SIGN ECD were immobilized in immobilization buffer (25 mM HEPES, 150 mM NaCl, 25 mM CaCl 2, pH 7.4) overnight at 4°C on transparent Nunc Maxisorp 96-well plates (Thermo Fisher). Protein solution was removed, and plates were washed three times with immobilization buffer and then blocked for 2 hours at 4°C with blocking buffer (25 mM HEPES, 150 mM NaCl, 25 mM CaCl 2, 2% BSA, 0.01% Tween -20). Plates were washed twice with 25 mM HEPES, 150 mM NaCl, 5 mM EDTA, pH 7.4 and twice with 25 mM HEPES, 150 mM NaCl, pH 7.4 to remove residual Ca 2+. To titrate Ca2+, CaCl2 in 25 mM HEPES, 150 mM NaCl, pH 7.4 was serially diluted on the plate at a constant HRP concentration of 1 µg mL-1 and then incubated at RT for 2 hours. Following incubation, plates were washed three times with 25 mM HEPES, 150 mM NaCl, pH 7.4 and bound HRP was detected using a TMB substrate kit (Thermo Fisher) and 0.18 M H2SO4 according to manufacturer’s instructions.
HRP titration. Immobilization and blocking were done as described above. After blocking, plates were washed three times with immobilization buffer. HRP in immobilization buffer was serially diluted on the plate at a constant concentration CaCl2 concentration of 25 mM and then incubated
at RT for 2 hours. Following incubation, plates were washed three times with immobilization buffer and HRP was detected as described above.
Immobilization and blocking were done as described above. After blocking, plates were washed three times with immobilization buffer. containing 1 µg mL-1 HRP was serially diluted on the plate and then incubated at RT for 2 hours.
Following incubation, plates were washed three times with immobilization buffer and HRP was detected as described above.
All conditions were measured in technical triplicates, averaged and normalized to the control well
IC50 and EC50 values and hill
slopes (nH) were obtained in a four-parameter fit according to equation (1).
Y = bottom + top − bottom (1)
With bottom and top representing the minimal and maximal response plateaus, respectively, Y as the observed response and X the logarithmic concentration of the ligand .

- Kd (DC-SIGN CRD Q323A): 3.5 ± 0.2 mM
- Kd (DC-SIGN CRD wildtype): 3.3 ± 0.3 mM
- Kd (DC-SIGN CRD W364F): 5 ± 0.9 mM
- Kd (DC-SIGN CRD F313A): 6 ± 0.5 mM
- Kd (DC-SIGN CRD F359L): 8.2 ± 0.8 mM
- Kd (DC-SIGN CRD T314A): 3.9 ± 0.1 mM
- Kd (DC-SIGN CRD I376V): 3.4 ± 0.2 mM
- Kd (DC-SIGN CRD M270F): 2.9 ± 0.4 mM
- Kd (DC-SIGN CRD E358A): 51.1 ± 4.9 mM
- hill slope, inhibition of HRP binding (DC-SIGN ECD T314A): -2.1
Structure (SMILES): OC[C@H]1OC(O)[C@@H](O)[C@@H](O)[C@@H]1O (stereo partly shown) [mannose]
